Drawing on US9073895B2 (Boehringer Ingelheim International GmbH, priority 2010, dated 2015), this text covers IC50 for 12 molecules.

The subject of test [1] is synthesis of LTB4 in human whole blood. As to the kind of experiment: Human whole blood LTB4 production inhibition assay. It counts as cell-based. Conditions: heparinized human whole blood, calcimycin 20 μM, plasma LTB4; read-out: HuWB IC50. In a few lines: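 Steps: compound plus heparinized human whole blood, 15 min at 37° C; add calcimycin to 20 μM final; incubate another 30 min at 37° C; centrifuge at low speed and collect plasma; measure LTB4 with a homogeneous time-resolved fluorescence immunoassay.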

Test [2] deals with T1, recombinant human FLAP protein (Homo sapiens, UniProt P20292).
T1 construct: made in house; host or cells: Sf9 insect cells (membrane fraction, 100,000 x g pellet)
T1 sequence (P20292 1-161): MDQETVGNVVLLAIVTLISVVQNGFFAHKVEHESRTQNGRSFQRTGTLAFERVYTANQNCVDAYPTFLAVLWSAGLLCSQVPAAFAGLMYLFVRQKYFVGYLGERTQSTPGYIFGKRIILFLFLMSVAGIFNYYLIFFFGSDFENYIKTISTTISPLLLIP
The test can be described thus: FLAP binding assay (SPA, displacement of [125I]L-691,831). Particulars: membranes of sf9 cells expressing human FLAP, [125I]L-691,831 probe; read-out: hFLAP binding IC50. In a few lines:
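Membranes from sf9 cells expressing human FLAP (5 μg/well) were bound to WGA SPA beads (200 μg/well). Nonspecific binding was defined with 10 μM unlabelled L-691,831.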

By IC50 is commonly meant the midpoint of a concentration-inhibition curve. Consider `Nc1ncc(-c2ccc(C3(C(=O)Nc4ccc(-n5ccnc5)cc4)CCOCC3)cc2)cn1` [Example 154, 4-[4-(2-aminopyrimidin-5-yl)phenyl]-N-[4-(1H-imidazol-1-yl)phenyl]tetrahydro-2H-pyran-4-carboxamide], for which the figures for the half-inhibitory concentration (IC50) in test [1] and in test [2] were 1370 nM and 63.3 nM, respectively.
For `Nc1ncc(-c2ccc(C3(C(=O)Nc4ccncc4)CCOCC3)cc2)cn1` [Example 155, 4-[4-(2-aminopyrimidin-5-yl)phenyl]-N-(pyridin-4-yl)tetrahydro-2H-pyran-4-carboxamide], in that order: 857 nM and 136 nM.
For `CC(C)(C(=O)Nc1ccccn1)c1ccc(-c2cnc(N)nc2)cc1` [Example 158, 2-[4-(2-aminopyrimidin-5-yl)phenyl]-2-methyl-N-(pyridin-2-yl)propanamide], in that order: 5270 nM and 36 nM.
For `COc1cncc(-c2ccc(NC(=O)C(C)(c3ccc(-c4cnc(N)nc4)cc3)C(C)C)nc2)c1` (stereo not drawn) [Example 162, 2-[4-(2-aminopyrimidin-5-yl)phenyl]-N-(5'-methoxy-3,3'-bipyridin-6-yl)-2,3-dimethylbutanamide], in that order: 896 nM and 4.1 nM.
Consider `COc1ccc(-c2ccc(NC(=O)C(C)(c3ccc(-c4cnc(N)nc4)cc3)C(C)C)nc2)cn1` (stereo not drawn) [Example 163, 2-[4-(2-aminopyrimidin-5-yl)phenyl]-N-(6'-methoxy-3,3'-bipyridin-6-yl)-2,3-dimethylbutanamide], for which the values for the IC50 in test [1] and in test [2] were 404 nM and 6.75 nM, respectively.
The corresponding values for `COc1ccc(-c2ccc(NC(=O)C(C)(c3ccc(-c4cnc5c(c4)CCN5)cc3)C(C)C)nc2)cn1` (stereo not drawn) [Example 164, 2-[4-(2,3-dihydro-1H-pyrrolo[2,3-b]pyridin-5-yl)phenyl]-N-(6'-methoxy-3,3'-bipyridin-6-yl)-2,3-dimethylbutanamide] are 315 nM and 1.9 nM.
For `COc1cncc(-c2ccc(NC(=O)C(C)(c3ccc(-c4cnc5c(c4)CCN5)cc3)C(C)C)nc2)c1` (stereo not drawn) [Example 165, 2-[4-(2,3-dihydro-1H-pyrolo[2,3-b]pyridin-5-yl)phenyl]-N-(5'-methoxy-3,3'-bipyridin-6-yl)-2,3-dimethylbutanamide], in that order: 354 nM and 1.4 nM.
As to `COc1ccc(-c2ccc(NC(=O)C(C)(c3ccc(-c4cnc5[nH]ccc5c4)cc3)C(C)C)nc2)cn1` (stereo not drawn) [Example 166, N-(6'-methoxy-3,3'-bipyridin-6-yl)-2,3-dimethyl-2-[4-(1H-pyrolo[2,3-b]pyridin-5-yl)phenyl]butanamide], the 50% inhibitory concentration (IC50) in test [1] came out at 332 nM; in test [2] it was 3 nM.
For `COc1cncc(-c2ccc(NC(=O)C3(c4ccc(-c5cnc6[nH]ccc6c5)cc4)CCOCC3)nc2)c1` [Example 167, N-(5'-methoxy-3,3'-bipyridin-6-yl)-4-[4-(1H-pyrrolo[2,3-b]pyridin-5-yl)phenyl]tetrahydro-2H-pyran-4-carboxamide], in that order: 354 nM and 4.7 nM.
For `COc1ccc(-c2ccc(NC(=O)C3(c4ccc(-c5cnc6[nH]ccc6c5)cc4)CCOCC3)nc2)cn1` [Example 168, N-(6'-methoxy-3,3'-bipyridin-6-yl)-4-[4-(1H-pyrrolo[2,3-b]pyridin-5-yl)phenyl]tetrahydro-2H-pyran-4-carboxamide], in that order: 616 nM and 7.95 nM.
For `CC(C)C(C)(C(=O)Nc1ccncc1)c1ccc(-c2cnc(N)nc2)cc1` (stereo not drawn) [Example 169, 2-[4-(2-aminopyrimidin-5-yl)phenyl]-2,3-dimethyl-N-(pyridin-4-yl)butanamide], in that order: 330 nM and 5.25 nM.
In the case of `COc1ccc(-c2ccc(NC(=O)C3(c4ccc(-c5cnc(N)c(CO)c5)cc4)CCOCC3)nc2)cn1` [Example 170], the IC50 in test [1] was determined as 894 nM; in test [2], 9.8 nM.
